Source: the NIST ThermoML archive (doi:10.1021/je0340755)
Numbers after ± are expanded uncertainties.

Assay: xn = mol fraction of the nth substance listed
Conditions: 101.3 kPa, Liquid; for viscosity: Capillary tube (Ostwald / Ubbelohde) method

CC(O)C(C)O (stereo unspecified) [2,3-butanediol] + O
speed of sound (328.15 K, x2 = 0.935): 1570.1 ± 6.4 m/s | mass density (328.15 K, x2 = 0.9452): 993.9 ± 0.27 kg/m3 | speed of sound (328.15 K, x2 = 0.9452): 1574.2 ± 6.4 m/s | mass density (328.15 K, x2 = 0.9542): 992.98 ± 0.28 kg/m3 | speed of sound (328.15 K, x2 = 0.9542): 1573 ± 6.4 m/s | mass density (328.15 K, x2 = 0.9703): 990.96 ± 0.28 kg/m3 | speed of sound (328.15 K, x2 = 0.9703): 1570.4 ± 6.4 m/s | mass density (328.15 K, x2 = 0.98): 989.48 ± 0.29 kg/m3 | speed of sound (328.15 K, x2 = 0.98): 1561.6 ± 6.4 m/s | mass density (328.15 K, x2 = 0.9903): 987.67 ± 0.29 kg/m3 | speed of sound (328.15 K, x2 = 0.9903): 1553.7 ± 6.4 m/s | mass density (328.15 K, x2 = 0.9925): 987.24 ± 0.29 kg/m3 | speed of sound (328.15 K, x2 = 0.9925): 1551.3 ± 6.4 m/s | mass density (328.15 K, x2 = 0.9951): 986.72 ± 0.3 kg/m3 | speed of sound (328.15 K, x2 = 0.9951): 1548.3 ± 6.3 m/s | viscosity (338.15 K, x2 = 0.0546): 4.899 ± 0.069 mPa·s | viscosity (338.15 K, x2 = 0.1435): 4.365 ± 0.067 mPa·s | viscosity (338.15 K, x2 = 0.2458): 3.722 ± 0.066 mPa·s | viscosity (338.15 K, x2 = 0.3539): 3.054 ± 0.065 mPa·s | viscosity (338.15 K, x2 = 0.4502): 2.49 ± 0.064 mPa·s | viscosity (338.15 K, x2 = 0.4989): 2.221 ± 0.064 mPa·s | viscosity (338.15 K, x2 = 0.5503): 1.951 ± 0.064 mPa·s | viscosity (338.15 K, x2 = 0.6581): 1.447 ± 0.064 mPa·s | viscosity (338.15 K, x2 = 0.7518): 1.089 ± 0.063 mPa·s | viscosity (338.15 K, x2 = 0.8626): 0.768 ± 0.063 mPa·s | viscosity (338.15 K, x2 = 0.9092): 0.656 ± 0.063 mPa·s | viscosity (338.15 K, x2 = 0.9148): 0.644 ± 0.063 mPa·s | viscosity (338.15 K, x2 = 0.9248): 0.621 ± 0.063 mPa·s | viscosity (338.15 K, x2 = 0.9305): 0.608 ± 0.063 mPa·s | viscosity (338.15 K, x2 = 0.935): 0.598 ± 0.063 mPa·s | viscosity (338.15 K, x2 = 0.9452): 0.573 ± 0.063 mPa·s | viscosity (338.15 K, x2 = 0.9542): 0.552 ± 0.063 mPa·s | viscosity (338.15 K, x2 = 0.9703): 0.513 ± 0.063 mPa·s | viscosity (338.15 K, x2 = 0.98): 0.49 ± 0.063 mPa·s | viscosity (338.15 K, x2 = 0.9903): 0.463 ± 0.063 mPa·s | viscosity (338.15 K, x2 = 0.9925): 0.458 ± 0.063 mPa·s | viscosity (338.15 K, x2 = 0.9951): 0.451 ± 0.063 mPa·s | mass density (338.15 K, x2 = 0.0546): 963.14 ± 0.43 kg/m3 | speed of sound (338.15 K, x2 = 0.0546): 1379 ± 5.8 m/s | mass density (338.15 K, x2 = 0.1435): 965.14 ± 0.42 kg/m3 | speed of sound (338.15 K, x2 = 0.1435): 1394.6 ± 5.9 m/s | mass density (338.15 K, x2 = 0.2458): 967.72 ± 0.4 kg/m3 | speed of sound (338.15 K, x2 = 0.2458): 1410.6 ± 5.9 m/s | mass density (338.15 K, x2 = 0.3539): 970.91 ± 0.38 kg/m3 | speed of sound (338.15 K, x2 = 0.3539): 1433.2 ± 6 m/s | mass density (338.15 K, x2 = 0.4502): 974.25 ± 0.36 kg/m3 | speed of sound (338.15 K, x2 = 0.4502): 1457.5 ± 6.1 m/s | mass density (338.15 K, x2 = 0.4989): 976.14 ± 0.36 kg/m3 | speed of sound (338.15 K, x2 = 0.4989): 1468.9 ± 6.1 m/s | mass density (338.15 K, x2 = 0.5503): 978.26 ± 0.34 kg/m3 | speed of sound (338.15 K, x2 = 0.5503): 1482.2 ± 6.2 m/s | mass density (338.15 K, x2 = 0.6581): 982.97 ± 0.32 kg/m3 | speed of sound (338.15 K, x2 = 0.6581): 1510.5 ± 6.2 m/s | mass density (338.15 K, x2 = 0.7518): 986.9 ± 0.31 kg/m3 | speed of sound (338.15 K, x2 = 0.7518): 1540 ± 6.3 m/s | mass density (338.15 K, x2 = 0.8626): 989.57 ± 0.29 kg/m3 | speed of sound (338.15 K, x2 = 0.8626): 1573.7 ± 6.4 m/s | mass density (338.15 K, x2 = 0.9092): 988.99 ± 0.29 kg/m3 | speed of sound (338.15 K, x2 = 0.9092): 1577.3 ± 6.4 m/s | mass density (338.15 K, x2 = 0.9148): 988.8 ± 0.29 kg/m3 | speed of sound (338.15 K, x2 = 0.9148): 1576 ± 6.4 m/s | mass density (338.15 K, x2 = 0.9248): 988.39 ± 0.29 kg/m3 | speed of sound (338.15 K, x2 = 0.9248): 1576.1 ± 6.4 m/s | mass density (338.15 K, x2 = 0.9305): 988.1 ± 0.29 kg/m3 | speed of sound (338.15 K, x2 = 0.9305): 1572.2 ± 6.4 m/s | mass density (338.15 K, x2 = 0.935): 987.85 ± 0.29 kg/m3 | speed of sound (338.15 K, x2 = 0.935): 1559.7 ± 6.4 m/s | mass density (338.15 K, x2 = 0.9452): 987.18 ± 0.29 kg/m3 | speed of sound (338.15 K, x2 = 0.9452): 1564.6 ± 6.4 m/s | mass density (338.15 K, x2 = 0.9542): 986.46 ± 0.3 kg/m3 | speed of sound (338.15 K, x2 = 0.9542): 1566.2 ± 6.4 m/s | mass density (338.15 K, x2 = 0.9703): 984.86 ± 0.3 kg/m3 | speed of sound (338.15 K, x2 = 0.9703): 1566.1 ± 6.4 m/s | mass density (338.15 K, x2 = 0.98): 983.67 ± 0.3 kg/m3 | speed of sound (338.15 K, x2 = 0.98): 1561.3 ± 6.4 m/s | mass density (338.15 K, x2 = 0.9903): 982.18 ± 0.31 kg/m3 | speed of sound (338.15 K, x2 = 0.9903): 1556.6 ± 6.4 m/s | mass density (338.15 K, x2 = 0.9925): 981.83 ± 0.31 kg/m3 | speed of sound (338.15 K, x2 = 0.9925): 1555.4 ± 6.4 m/s | mass density (338.15 K, x2 = 0.9951): 981.4 ± 0.31 kg/m3 | speed of sound (338.15 K, x2 = 0.9951): 1552.7 ± 6.4 m/s
